Data from patent US20250152496A1, “SKIN IMPROVING AGENT CONTAINING FERMENTED EXTRACT AS MAIN RAW MATERIAL” (priority 2022, published 2025).

Experiments:
[1] = test system: elastase derived from human skin fibroblasts (NHDF-Ad); assay: elastase activity inhibition test (anti-wrinkle test); assay type: biochemical; conditions: 50 nM; 37° C. for 2 hours
Protocol: Therefore, in this example, elastase activity was evaluated by measuring an amount of nitroaniline produced using elastase derived from human skin fibroblasts (NHDF-Ad), and using N-Succinyl-Ala-Ala-Ala-β-nitroanilide as a substrate. Based on the elastase activity, a skin dermis elasticity retention and aging function (an activity inhibition rate) of the test object of rice malt lactic acid bacterium fermentation liquid SW01 (hereinafter, SW01) was examined.
The elastase activity was set to 100% using, as a control, a reaction with only elastase derived from human skin fibroblasts (NHDF-Ad) and N-Succinyl-Ala-Ala-Ala-β-nitroanilide as a substrate. Reaction conditions in this experiment were 37° C. for 2 hours.

[2] = test system: rat basophilic leukemia cell RBL-2H3; assay: degranulation inhibition: β-hexosaminidase activity of antigen-stimulated RBL-2H3 cells; assay type: cell-based; conditions: 50 µg/mL, positive control
Protocol: To determine an extent to which the test object inhibits degranulation, degranulation is assessed by measuring the activity of β-hexosaminidase, which is abundantly present in the granulocyte. Accordingly, the effect of the test object on allergic reaction is evaluated. It is known that rat basophilic leukemia cell RBL-2H3 releases the granulocyte containing histamine and the like to the outside of the cell when IgE bound to the cell surface is cross-linked with an antigen. This has been applied as an experimental system to exploratory research and the like as screening for substances having an anti-allergic action against type I allergy. In this example, the inhibition of degranulation is evaluated by stimulating RBL-2H3 cells with an antigen and measuring the activity of β-hexosaminidase (FIG. 4). […] Further, […] of quercetin was used as a positive control. […] By adding […] of the rice malt lactic acid bacterium fermentation liquid SW01, the activity of β-hexosaminidase was about 50%. […] Note that, the p value in FIG. 4 is p<0.01.

elastase inhibition by standard agent [1]	SMILES	activity of β-hexosaminidase (control with sterilized water = 100%) [2]
show elastase inhibition	CC(C)C[C@H](NP(=O)(O)O[C@@H]1O[C@@H](C)[C@H](O)[C@@H](O)[C@H]1O)C(=O)N[C@@H](Cc1c[nH]c2ccccc12)C(=O)O [phosphoramidon]	
	O=c1c(O)c(-c2ccc(O)c(O)c2)oc2cc(O)cc(O)c12 [quercetin]	about 40%
